Laboratory results published in patent US11034991B2, “Methods to determine KDM1A target engagement and chemoprobes useful therefor” (Oryzon Genomics S.A., priority 2016, dated 2021).
pIC50: −log10 of the molar value. Entries after “also recorded” stand apart in the source; their conditions may differ. Where a name gives a salt, the structure may show the parent alone.

Columns and labels:
[1] = molecular target: Human recombinant MAO-A (Homo sapiens (Human), UniProt P21397); experiment: MAO inhibition (kynuramine fluorescence assay), MAO-A; assay type: biochemical; conditions: kynuramine at KM, 1 h at 37° C.
Chain of Human recombinant MAO-A (P21397 whole entry): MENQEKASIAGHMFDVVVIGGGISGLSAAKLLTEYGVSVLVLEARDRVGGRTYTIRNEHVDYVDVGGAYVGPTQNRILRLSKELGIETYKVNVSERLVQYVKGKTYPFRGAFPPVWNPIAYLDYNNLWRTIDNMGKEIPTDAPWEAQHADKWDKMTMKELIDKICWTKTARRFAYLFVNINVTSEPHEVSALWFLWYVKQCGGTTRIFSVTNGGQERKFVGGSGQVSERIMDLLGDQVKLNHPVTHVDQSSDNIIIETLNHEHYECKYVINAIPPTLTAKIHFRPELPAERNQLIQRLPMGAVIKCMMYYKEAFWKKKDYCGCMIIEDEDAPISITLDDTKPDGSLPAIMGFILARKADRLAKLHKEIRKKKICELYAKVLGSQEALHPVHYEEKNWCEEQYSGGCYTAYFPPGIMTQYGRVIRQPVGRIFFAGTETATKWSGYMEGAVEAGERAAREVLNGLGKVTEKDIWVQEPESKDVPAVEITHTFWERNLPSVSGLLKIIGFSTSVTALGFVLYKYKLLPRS
Description: (§1) The target selectivity of the chemoprobes for binding FAD in KDM1A relative to other FAD containing enzymes is evaluated by testing the chemoprobes in different biochemical assays to determine its MAO-A, MAO-B, IL4I1 and SMOX inhibitory activity in vitro. All IC50 values were calculated using Graph Prism Software.
(§2) Human recombinant MAO-A and MAO-B were purchased from Sigma Aldrich (#M7316 and #M7441 respectively). Enzymatic activities and inhibition rate were analyzed in a fluorescence based assay using kynuramine (Sigma Aldrich #K3250) as a substrate. Clorgiline and Deprenyl (Sigma Aldrich #M3778 and #M003) were used as controls for specific inhibition of MAO-A and MAO-B respectively. Compounds were pre-incubated with protein for 15 min on ice in 100 mM Hepes pH 7.5. The enzymatic reaction was initiated by the addition of specific KM Kynuramine and incubated 1 h at 37° C. The reaction was stopped by adding NaOH 2N (v/v). The conversion of kynuramine to 4-hydroxyquinoline was monitored by fluorescence (λex=320 nm, λem=360 nm) using a microplate reader.

[2] = molecular target: Human recombinant MAO-B (Homo sapiens (Human), UniProt P27338); experiment: MAO inhibition (kynuramine fluorescence assay), MAO-B; assay type: biochemical; conditions: kynuramine at KM, 1 h at 37° C.
Chain of Human recombinant MAO-B (P27338 whole entry): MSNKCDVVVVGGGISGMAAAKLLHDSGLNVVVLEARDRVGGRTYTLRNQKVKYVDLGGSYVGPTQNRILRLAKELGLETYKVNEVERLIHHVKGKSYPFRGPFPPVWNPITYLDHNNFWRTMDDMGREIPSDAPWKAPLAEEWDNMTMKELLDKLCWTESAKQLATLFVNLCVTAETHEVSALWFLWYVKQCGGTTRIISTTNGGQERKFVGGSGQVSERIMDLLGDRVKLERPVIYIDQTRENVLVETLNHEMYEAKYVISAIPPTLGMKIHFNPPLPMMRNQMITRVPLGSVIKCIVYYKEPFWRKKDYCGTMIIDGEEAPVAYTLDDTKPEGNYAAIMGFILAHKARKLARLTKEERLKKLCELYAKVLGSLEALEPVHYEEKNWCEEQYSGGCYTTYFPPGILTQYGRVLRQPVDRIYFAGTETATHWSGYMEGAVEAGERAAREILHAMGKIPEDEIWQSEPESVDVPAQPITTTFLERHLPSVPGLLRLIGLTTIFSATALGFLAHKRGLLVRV
Description: as §1, §2

[3] = molecular target: hIL-4I1 (Homo sapiens (Human), UniProt Q96RQ9); experiment: IL-4I1 inhibition (phenylalanine oxidation, HRP/Amplex red); assay type: biochemical
Chain of hIL-4I1 (Q96RQ9 22-567): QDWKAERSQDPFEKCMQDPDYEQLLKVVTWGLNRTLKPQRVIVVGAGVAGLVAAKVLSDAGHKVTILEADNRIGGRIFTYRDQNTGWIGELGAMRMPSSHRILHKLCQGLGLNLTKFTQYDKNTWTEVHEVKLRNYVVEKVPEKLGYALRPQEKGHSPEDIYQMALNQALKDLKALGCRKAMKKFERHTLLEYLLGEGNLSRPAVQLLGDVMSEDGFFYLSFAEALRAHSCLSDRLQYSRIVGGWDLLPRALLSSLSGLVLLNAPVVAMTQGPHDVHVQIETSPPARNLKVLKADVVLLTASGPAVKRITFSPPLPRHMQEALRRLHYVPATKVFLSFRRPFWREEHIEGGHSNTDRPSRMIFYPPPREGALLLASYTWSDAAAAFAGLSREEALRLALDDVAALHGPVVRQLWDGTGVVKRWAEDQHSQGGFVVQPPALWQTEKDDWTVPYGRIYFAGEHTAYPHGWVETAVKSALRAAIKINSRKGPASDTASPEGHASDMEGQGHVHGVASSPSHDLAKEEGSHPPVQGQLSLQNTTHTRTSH
Description: as §1
Human recombinant IL-411 was purchased from RD Systems (#5684-A0-020). The biochemical activity was measured by its ability to oxidize phenylalanine and produce H2O2 in a horseradish-peroxidase coupled assay using Amplex red as substrate.

[4] = molecular target: Mouse recombinant SMOX enzyme (Mus musculus (Mouse), UniProt Q99K82); experiment: SMOX inhibition (spermine oxidation, HRP/Amplex red); assay type: biochemical; conditions: KM spermine, 10 minutes; read-out: mSMOX IC50
Chain of Mouse recombinant SMOX enzyme (Q99K82 whole entry): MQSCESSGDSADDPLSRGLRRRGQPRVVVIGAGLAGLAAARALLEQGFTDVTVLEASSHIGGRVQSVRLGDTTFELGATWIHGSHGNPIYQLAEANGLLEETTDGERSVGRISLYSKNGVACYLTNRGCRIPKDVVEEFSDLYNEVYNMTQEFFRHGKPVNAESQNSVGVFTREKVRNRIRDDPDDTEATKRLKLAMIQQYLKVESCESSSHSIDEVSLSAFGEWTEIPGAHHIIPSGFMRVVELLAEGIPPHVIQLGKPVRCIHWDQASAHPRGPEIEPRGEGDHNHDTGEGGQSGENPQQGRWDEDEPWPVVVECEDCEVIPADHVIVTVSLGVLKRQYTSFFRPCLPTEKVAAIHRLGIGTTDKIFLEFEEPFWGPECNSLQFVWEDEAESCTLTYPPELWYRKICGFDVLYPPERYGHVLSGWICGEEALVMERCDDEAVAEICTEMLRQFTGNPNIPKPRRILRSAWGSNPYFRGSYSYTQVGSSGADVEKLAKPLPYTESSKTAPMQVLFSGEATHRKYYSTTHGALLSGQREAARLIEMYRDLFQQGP
Description: as §1
Mouse recombinant SMOX enzyme was provided by Professor Paolo Mariottini (Rome University). The biochemical activity was measured by its ability to oxidize spermine in a horseradish peroxidase coupled assay using Amplex red as a substrate. The assay buffer for mSMOX reaction was 100 mM Sodium Phosphate pH 8.0. The inhibition by tested compounds was monitored during 10 minutes in the presence of KM spermine.

[5] = test system: KDM1A in brain; experiment: In vivo KDM1A target engagement, brain of SAMP8 mice
Description: (§3) 8.1. Samples preparation and obtention of protein extracts from cells was performed as described in example 5. Frozen tissues were homogenized with a mortar and pestle chilled on dry ice. Powdered samples were resuspended in lysis buffer and forced through a 18 gauge blunt syringe needle to lyse the cells, proteins were then extracted as described above for cell pellets (example 5.2). Isolation of PBMCs from peripheral blood was also as described in example 5.2.
(§4) 8.2. Assay Protocol and Calculation of TE: same as Described in Example 7.1 and 7.2.
The methods of the invention have also been used to determine KDM1A target engagement in SAMP8 mice (a non-transgenic model for neurodegeneration reminiscent of Alzheimer's disease) which have been treated with the KDM1A inhibitor designated as Compound C. Compound C is the compound with chemical name (−)5-((((trans)-2-(4-(benzyloxy)phenyl)cyclopropyl)amino)methyl)-1,3,4-oxadiazol-2-amine, which is described in WO2012/013728. […] Female SAMP8 mice were treated with Compound C starting at 5 months of age and during 2 months. Mice were randomly distributed in three groups, receiving vehicle or Compound C at 0.11 mg/kg/day or 0.32 mg/kg/day, respectively. […] The dose was calculated according to the animal water consumption average per cage and adjusted weekly. […]

[6] = molecular target: KDM1A in PBMCs (Homo sapiens (Human), UniProt O60341); experiment: KDM1A target engagement in PBMCs of healthy volunteers (Phase I clinical study); assay type: in vivo; conditions: single oral dose of 1.5 mg, 12 and 72 h post-administration, 6 volunteers
Description: A Phase I clinical study has been performed to characterize the safety, tolerability, pharmacokinetics and pharmacodynamics of Compound C in healthy volunteers. The first stage of this clinical study is a randomized, double-blind, dose escalation study, in which the KDM1A inhibitor was administered as a single oral dose in capsules. Up to five different dose levels were tested in cohorts of 8 volunteers, randomized to receive either Compound C (n=6) or placebo (n=2). As part of the pharmacodynamic evaluations in this clinical study, KDM1A target engagement (TE) was assessed at pre-treatment, and 12 and 72 h after drug administration. Briefly, blood samples (10 mL) were collected in EDTA-K2 tubes from all the treated volunteers (active drug and placebo, n=8 per dose level) and PBMCs pellets obtained by density gradient centrifugation in Leucosep™ tubes and stored at −90° C. until analysis. Only PBMC samples meeting pre-established sample quality control criteria are used for the TE analysis. In particular, samples with signs of hemolysis and/or with traces of red cells are discarded.
KDM1A TE values obtained for each volunteer in the cohort of volunteers corresponding to the single dose of 1.5 mg of Compound C are shown in FIG. 11.

[7] = molecular target: human recombinant KDM1A enzyme (Homo sapiens (Human), UniProt O60341); conditions: read-out: KDM1A IC50 (biochemical assay)
[8] = molecular target: human rKDM1A (Homo sapiens (Human), UniProt O60341); experiment: AlphaLISA detection of free KDM1A; assay type: binding; conditions: pretreatment of the enzyme at 5 uM; chemoprobe Example 1.6 100 nM
Description: The AlphaLISA assay detects the proximity of a first detection agent containing […] latex donor beads containing phthalocyanine that release singlet oxygen after irradiation at […] to a second detection agent containing similar sized acceptor beads containing Europium that emit a narrow peak of light at […] after absorption of singlet oxygen. The AlphaPlex assay allows detection of multiple analytes in the same assay volume and works similarly, but two acceptor beads are used (second and third detection agents) containing respectively Terbium or Samarium and emit light at 545 nM or 645 nM after absorption. Effective singlet oxygen transfer occurs when donor and acceptor beads are separated by a distance of less than 200 nm.
For example, anti-KDM1A antibody (mAb-844) was conjugated to AlphaLISA acceptor beads (Perkin Elmer #6772001) to generate a first detection agent, and anti-KDM1A antibody (mAb-825) was conjugated to AlphaLISA donor beads (Perkin Elmer #6762013) to generate a second detection agent that together form a detection system that can be used to determine total KDM1A levels. […]

[9] = molecular target: KDM1A in LNCap cells (Homo sapiens (Human), UniProt O60341); experiment: KDM1A target engagement in cells (chemoprobe luminescent ELISA), LNCap; assay type: cell-based; conditions: LNCap cells treated for 24 h at 0.1, 1 and 10 nM
Description: Coating was performed at 4° C.

[10] = molecular target: T1, KDM1A in rat PBMCs (Rattus norvegicus (Rat), UniProt A0A8I6G2K8); experiment: In vivo KDM1A target engagement, ex vivo rat PBMCs; conditions: pooled rat PBMC, oral gavage 4 consecutive days, 1, 3, 10 and 30 ug/kg/day, two hours after last administration
Description: Peripheral blood mononuclear cells (PBMCs) from rat were isolated from peripheral fresh blood collected in anticoagulant tubes for blood (K2- or K3-EDTA as the preferred anticoagulant tubes) and diluted with an equal volume of PBS, using Ficoll-Paque PLUS reagent (GE Healthcare; #17-1440-02) or Leucosep Tubes (Greiner bio-one; #227288) according to manufacturer's instructions. Cells were stained with tryptan blue and cell number and viability were determined using a Neubauer Chamber in an optical microscope. Pellets of 1·10^6 PBMCs were preserved at −80° C. The same procedure can be used for isolation of PBMCs from other resources such as human or mouse blood. In the case of human samples, preferably Leucosep procedure is used, whereas for mouse PBMCs, Ficoll procedure is preferred.
8.1. Samples preparation and obtention of protein extracts from cells was performed as described in example 5. Frozen tissues were homogenized with a mortar and pestle chilled on dry ice. […]
(§5) Four different doses were used (1, 3, 10 and 30 ug/kg/day). The KDM1A target engagement was calculated as described previously (see example 7), where RX corresponds to each condition analyzed and RREF is the sample corresponding to vehicle (non treated) rat PBMCs.

[11] = molecular target: KDM1A in rat lung (Rattus norvegicus (Rat), UniProt A0A8I6G2K8); experiment: In vivo KDM1A target engagement, ex vivo rat lung; conditions: pooled rat lung, oral gavage 4 consecutive days, 1, 3, 10 and 30 ug/kg/day
Description: as §3, §4, §5

[12] = molecular target: T1, KDM1A in rat PBMCs; experiment: Dynamics of KDM1A target engagement in rat pooled PBMCs; assay type: in vivo
Description: Obtention of proteins extracts, assay protocol and calculation of TE as described in example 8.1, 7.1 and 7.2 respectively.
PBMCs were obtained pre-dose (before starting the drug administration) and 2, 6, 24 h after the single dose administration, or pre-dose (i.e. 0 h) and 2, 6, 24, 48 and 72 h after the last drug administration in the multiple dose administration. Total and free KDM1A protein levels in PBMCs were assessed using 0.5 ug of total protein extracts. […] The KDM1A target engagement was calculated as described previously (see section 7.2)), where RX corresponds to each time-point analyzed and RREF is the sample corresponding to the pre-dose of rat PBMC.

[13] = molecular target: KDM1A from THP-1 cells (Homo sapiens (Human), UniProt O60341); conditions: pretreatment with 25 nM; chemoprobe example 1.1
Description: (§6) Tubes were incubated for 5 min on ice and briefly sonicated to achieve lysis. The resulting extracts were centrifuged 10 min at 14.000×g at 4° C. Supernatants were collected and quantified by Bradford assay (BIO-RAD; #500-0006) following manufacturer's instructions.
(§7) 350 μg of protein extracts (containing the chemoprobe) was then added and incubated for 30 min at room temperature (RT) using gentle rotation. The chemoprobe-KDM1A complex bound to the streptavidin beads was separated using a magnet and washed 4 times in PBS. After the last wash, samples were resuspended in 25 μL of 3×SDS Sample Buffer and analyzed by western blot. Samples were separated on a 10% Bis-Tris NuPAGE® Novex® Precast gel (Invitrogen; #P0301BOX) following manufacturer's instructions. Gels were transferred onto nitrocellulose membrane (GE Healthcare; #RPN303D) for immunodetection by semi-dry transfer. N-specific binding sites were blocked by incubating membranes in blocking buffer (5% non-fat dry milk in PBS-Tween 0.1%) at RT for 1 h. […] Signal was detected by enhanced chemiluminescence (ECL, Amersham, GE Healthcare; #W9643350) using a GeneGnome HR System (Syngene).

[14] = molecular target: KDM1A from MV(4;11) cells (Homo sapiens (Human), UniProt O60341); conditions: MV(4;11) cells pre-treated with 25 nM; chemoprobes Examples 1.4 and 1.5
Description: as §6, §7

[15] = molecular target: KDM1A in MV(4;11) cells (Homo sapiens (Human), UniProt O60341); conditions: 24 h of treatment
Description: Total protein extracts were quantified and 1 ug of total protein was used to perform the target engagement analysis as described above, using the luminescent substrate.

[16] = molecular target: KDM1A in THP-1 cells (Homo sapiens (Human), UniProt O60341); experiment: KDM1A target engagement in cells (chemoprobe luminescent ELISA), THP-1; conditions: THP-1 cells treated for 24 h, 0.25-25 nM

N[C@H]1CC[C@H](N[C@@H]2C[C@H]2c2ccc(-c3cccc(CCC(=O)NCCOCCOCCOCCOCCOCCOCCOCCOCCOCCOCCOCCNC(=O)CCCC[C@@H]4SC[C@@H]5NC(=O)N[C@@H]54)c3)cc2)CC1 [Example 1.6, N-(39-(4′-((1S,2R)-2-(((trans)-4-aminocyclohexyl)amino)cyclopropyl)-[1,1′-biphenyl]-3-yl)-37-oxo-3,6,9,12,15,18,21,24,27,30,33-undecaoxa-36-azanonatriacontyl)-5-((3aS,4S,6aR)-2-oxohexahydro-1H-thieno[3,4-d]imidazol-4-yl)pentanamide dihydrochloride]
pIC50 [1]: < 4.00 | pIC50 [2]: < 4.00 | pIC50 ([3]; KM phenylalanine, 30 minutes): < 4.00 | inhibition at 100 µM ([3]; at 100 uM): 31% | pIC50 [4]: 4.89

Nc1nnc(CN[C@@H]2C[C@H]2c2ccc(OCc3ccccc3)cc2)o1 [Compound C, (−)5-((((trans)-2-(4-(benzyloxy)phenyl)cyclopropyl)amino)methyl)-1,3,4-oxadiazol-2-amine]
mean % KDM1A target engagement ([5]; brain of female SAMP8 mice, 0.11 or 0.32 mg/kg/day in drinking water, 2 months): clear dose-response of KDM1A target engagement | brain penetration ([5]; mouse, in vivo): enters the brain; also recorded: cross the blood-brain barrier | KDM1A TE [6]: Clear KDM1A target engagement | pIC50 [7]: 7.00

N[C@H]1CC[C@H](N[C@@H]2C[C@H]2c2ccccc2)CC1 [ORY-1001, (trans)-N1-((1R,2S)-2-phenylcyclopropyl)cyclohexane-1,4-diamine]
free KDM1A signal (AlphaLISA) [8]: blocked | KDM1A target engagement [9]: clear KDM1A target engagement | KDM1A target engagement (in %) [10]: clear dose-response of KDM1A target engagement | KDM1A target engagement (in %) [11]: clear dose-response of KDM1A target engagement | target engagement after multiple administrations versus single administration ([12]; at the same dose level): higher than single administration | percentage of KDM1A target engagement over time ([12]; pooled rat PBMCs, p.o. 2.5 and 15 ug/kg/day, single dose or 5 consecutive days): clear time- and dose-response in KDM1A target engagement | percentage of KDM1A target engagement after the last dose in absence of further treatment ([12]; up to 72 h after the last administration): gradually decreases | effect of pretreatment on pull-down of KDM1A by chemoprobe [13]: completely prevented pull-down of KDM1A | effect of pre-treatment on pull-down of KDM1A by chemoprobes [14]: completely prevented pull-down of KDM1A | % of KDM1A target engagement [15]: dose-responsive cellular target engagement | % of Target engagement [16]: dose-responsive cellular target engagement
